Legend:
persons with atopic skin [1] = assay: 2-hour moisture retention duration test on atopic skin (Test Example 9); type: in vivo, human
Protocol: A 2-hour moisture retention duration test was performed on atopic skin.

[2] = tested on: normal human skin fibroblasts; assay: Collagen production recovery test on damaged fibroblasts (Test Example 1); type: cell-based; settings: 3H-proline uptake into collagen; sample final concentration 3.3%; 24 hours at 37° C.; hypoxanthine/xanthine oxidase damage; FIG. 1
Protocol: A collagen production recovery test was conducted on damaged fibroblasts. Six to eight subcultures of normal human skin fibroblasts (Physicochemical Research Institute, Cell Development Bank NBIRGB) were used in the test. […] Measurement of collagen production ability of a confluent in the steady state was performed according to the method of Webster et al. based on the uptake of ^3H-proline into the produced collagen. […] Since proline is a main component of the amino acids that compose collagen, fibroblasts are cultured in a medium containing ^3H-proline, and the ^3H activity taken up into collagen in the cells is measured. Units are in d.p.m., and represent the number of […] of radioactivity released per minute.

[3] = tested on: volunteers with chapped skin; assay: Moisture retention duration test on persons with chapped skin, ammonium samples (Test Example 17); type: in vivo, human
Protocol: A moisture retention duration test was conducted on persons with chapped skin.
Test Method: Same as Test Example 2
Measurement Method: Same as Text Example 2
Test Apparatus: Same as Test Example 2

persons with atopic skin [4] = assay: Moisture retention ability test on atopic skin, ammonium samples (Test Example 18); type: in vivo, human; settings: FIG. 54
Protocol: A moisture retention ability test was performed on atopic skin. Test Method: Same as Test Example 3 Measurement Method: Same as Text Example 3 Test Apparatus: Same as Test Example 3

| SMILES | moisture retention duration / continuation of moisture retention (persons with atopic skin [1]) | collagen production ability of fibroblasts damaged by active oxygen [2] | moisture retention duration [3] | moisture retention ability (persons with atopic skin [4]) |
| --- | --- | --- | --- | --- |
| N=C(N)NCCC[C@H](N)C(=O)O [L-arginine] | observed | significantly improved | – | – |
| N [ammonium ions] | – | – | can be observed | can be observed |
| NCCO [ethanolamine] | observed | significantly improved | – | – |
